One assay deals with MCH receptors. The experiment in a line: MCH receptor activity class (method not given). As to conditions: MCH receptor activity class 1-3 (percent of control at 10^-7 M or IC50).
As to `CN(C)c1ccnc(N[C@H]2CC[C@@H](NC(=S)Nc3ccc4c(c3)OCCO4)CC2)n1` [compound 2349], the class was 3 (Class 3 The value of percent of control at 10^−7 M was more than 60% or the value of IC50 was more than 200 nM.).

The same assay, now with this note: MCH receptor; class by percent of control at 10^-7 M or IC50.
In the case of `CN(C)c1nc(N[C@H]2CC[C@@H](NC(=S)Nc3cc(F)ccc3F)CC2)nc2c1CCCC2` [compound 1935], the class was 3 (Class 3 The value of percent of control at 10^−7 M was more than 60% or the value of IC50 was more than 200 nM.). Consider `CN(C)c1cc(N[C@H]2CC[C@@H](NC(=O)c3ccc(F)c(Cl)c3)CC2)nc2ccccc12` [compound 73, 3-chloro-N-(cis-4-{[4-(dimethylamino)quinolin-2-yl]amino}cyclohexyl)-4-fluorobenzamide], for which the class is on record as 1 (Class 1: The value of percent of control at 10^−7 M was less than 40% or the value of IC50 was less than 50 nM.).

Consider `CN(C)c1nc(N[C@H]2CC[C@@H](NC(=S)NCc3ccco3)CC2)nc2c1CCCC2` [compound 1940], for which the class is 3 (Class 3 The value of percent of control at 10^−7 M was more than 60% or the value of IC50 was more than 200 nM.). Take `CN(C)c1nc(N[C@H]2CC[C@@H](NC(=S)Nc3ccc(F)cc3Br)CC2)nc2c1CCCC2` [compound 2070]: the class is reported as 3 (Class 3 The value of percent of control at 10^−7 M was more than 60% or the value of IC50 was more than 200 nM.).

Regarding `CN(C)c1nc(N[C@H]2CC[C@@H](NC(=S)NCCC3=CCCCC3)CC2)nc2c1CCCC2` [compound 2058], the class is listed as 3 (Class 3 The value of percent of control at 10^−7 M was more than 60% or the value of IC50 was more than 200 nM.). As to `Cc1cc(C(=O)N[C@H]2CC[C@@H](Nc3cc(N(C)C)c4ccccc4n3)CC2)n(C)n1` [compound 103], the class is on record as 3 (Class 3 The value of percent of control at 10^−7 M was more than 60% or the value of IC50 was more than 200 nM.). As to `CN(C)c1nc(N[C@H]2CC[C@@H](NC(=S)Nc3cccnc3)CC2)nc2c1CCCC2` [compound 2076], the class was 3 (Class 3 The value of percent of control at 10^−7 M was more than 60% or the value of IC50 was more than 200 nM.). As for `CN(C)c1nc(N[C@H]2CC[C@@H](NC(=S)Nc3ccc(F)c(Cl)c3)CC2)nc2c1CCCC2` [compound 2071], the class is reported as 3 (Class 3 The value of percent of control at 10^−7 M was more than 60% or the value of IC50 was more than 200 nM.). Regarding `CN(C)c1cc(N[C@H]2CC[C@@H](CNC(=O)c3ccc(F)c(Cl)c3)CC2)nc2ccccc12` [compound 200], the class was 3 (Class 3 The value of percent of control at 10^−7 M was more than 60% or the value of IC50 was more than 200 nM.). Consider `COc1ccc(-c2ccccc2)cc1NC(=S)N[C@H]1CC[C@@H](Nc2nc3c(c(N(C)C)n2)CCCC3)CC1` [compound 1945], for which the class was 3 (Class 3 The value of percent of control at 10^−7 M was more than 60% or the value of IC50 was more than 200 nM.). The same measure, in the same setting: under `CCCCCC(=O)NC[C@H]1CC[C@@H](Nc2cc(N(C)C)c3ccccc3n2)CC1` [compound 167] stands 3 (Class 3 The value of percent of control at 10^−7 M was more than 60% or the value of IC50 was more than 200 nM.); under `CN(C)c1cc(N[C@H]2CC[C@@H](NC(=O)C(C)(C)Oc3ccc(Cl)cc3)CC2)nc2ccccc12` [compound 139], 3 (Class 3 The value of percent of control at 10^−7 M was more than 60% or the value of IC50 was more than 200 nM.). `CN(C)c1nc(N[C@H]2CC[C@@H](NC(=S)Nc3ccccc3C#N)CC2)nc2c1CCCC2` [compound 2036]: the class is 3 (Class 3 The value of percent of control at 10^−7 M was more than 60% or the value of IC50 was more than 200 nM.).

Take `CN(C)c1cc(N[C@H]2CC[C@@H](CNC(=O)Cc3ccc(Cl)cc3)CC2)nc2ccccc12` [compound 155]: the class is 3 (Class 3 The value of percent of control at 10^−7 M was more than 60% or the value of IC50 was more than 200 nM.).

Consider `CN(C)c1nc(N[C@H]2CC[C@@H](NC(=S)Nc3c(F)cccc3F)CC2)nc2c1CCCC2` [compound 1974], for which the class is given as 3 (Class 3 The value of percent of control at 10^−7 M was more than 60% or the value of IC50 was more than 200 nM.). Consider `CN(C)c1nc(N[C@H]2CC[C@@H](NC(=S)Nc3ccc(F)c(C(F)(F)F)c3)CC2)nc2c1CCCC2` [compound 1993], for which the class is on record as 3 (Class 3 The value of percent of control at 10^−7 M was more than 60% or the value of IC50 was more than 200 nM.).

Still in this assay, the particulars now being: activity class 1-3: percent of control at 10^-7 M or IC50.
For the compound `CN(C)c1cc(N[C@H]2CC[C@@H](NC(=O)Oc3ccc(Br)cc3)CC2)nc2ccccc12` [compound 1543], the class is given as 3 (Class 3 The value of percent of control at 10^−7 M was more than 60% or the value of IC50 was more than 200 nM.).

The assay is the same for the next values; noted with them: activity class per percent of control at 10^-7 M or IC50.
In the case of `COc1ccc(CSC2(CC(=O)N[C@H]3CC[C@@H](Nc4nc5c(c(N(C)C)n4)CCCC5)CC3)CCCCC2)cc1` [compound 989], the class was 3 (Class 3 The value of percent of control at 10^−7 M was more than 60% or the value of IC50 was more than 200 nM.).

The same assay, now with this note: class 1-3 by percent of control at 10^-7 M or IC50.
Regarding `CC(C)S(=O)(=O)c1csc(C(=O)N[C@H]2CC[C@@H](Nc3nc4c(c(N(C)C)n3)CCCC4)CC2)c1Cl` [compound 537], the class is recorded as 3 (Class 3 The value of percent of control at 10^−7 M was more than 60% or the value of IC50 was more than 200 nM.).

With `CN(C)c1nc(N[C@H]2CC[C@@H](NC(=O)Cc3ccc(Cl)cc3)CC2)nc2c1CCCC2` [compound 464, 2-(4-chlorophenyl)-N-(cis-4-{[4-(dimethylamino)-5,6,7,8-tetrahydroquinazolin-2-yl]amino}cyclohexyl)acetainide], the class is 1 (Class 1: The value of percent of control at 10^−7 M was less than 40% or the value of IC50 was less than 50 nM.).

For `CN(C)c1nc(N[C@H]2CC[C@@H](NC(=O)c3csc(-c4cccs4)n3)CC2)nc2c1CCCC2` [compound 581], the class is listed as 2 (Class 2: The value of percent of control at 10^−7 M was from 40% to 60% or the value of IC′50 was from 50 nM to 200 nM.).

As to `CN(C)c1nc(N[C@H]2CC[C@@H](CNC(=O)c3cc(F)cc(C(F)(F)F)c3)CC2)nc2c1CCCC2` [compound 600], the class is listed as 3 (Class 3 The value of percent of control at 10^−7 M was more than 60% or the value of IC50 was more than 200 nM.).

The assay is the same for the next values; noted with them: class by percent of control at 10^-7 M or IC50.
As for `CN(C)c1cc(N[C@H]2CC[C@@H](CNCc3cc(Cl)cc(Br)c3O)CC2)nc2ccccc12` [compound 1162], the class is 3 (Class 3 The value of percent of control at 10^−7 M was more than 60% or the value of IC50 was more than 200 nM.). As to `CN(C)c1nc(N[C@H]2CC[C@@H](CNC(=O)c3cccc4c3-c3ccccc3C4=O)CC2)nc2c1CCCC2` [compound 661], the class is given as 3 (Class 3 The value of percent of control at 10^−7 M was more than 60% or the value of IC50 was more than 200 nM.). Regarding `CCc1ccccc1NC(=S)N[C@H]1CC[C@@H](Nc2cc(N(C)C)c3ccccc3n2)CC1` [compound 2178], the class is reported as 3 (Class 3 The value of percent of control at 10^−7 M was more than 60% or the value of IC50 was more than 200 nM.).

As for `Cc1ccc(C(=O)N[C@H]2CC[C@@H](Nc3nccc(N(C)C)n3)CC2)cc1[N+](=O)[O-]` [compound 261, N-(cis-4-{[4-(dimethylamino)pyrimidin-2-yl]amino}cyclohexyl)-4-methyl-3-nitrobenzamide], the class was 2 (Class 2: The value of percent of control at 10^−7 M was from 40% to 60% or the value of IC′50 was from 50 nM to 200 nM.). Take `CN(C)c1cc(N[C@H]2CC[C@@H](NC(=O)Cc3c[nH]c4ccc(OCc5ccccc5)cc34)CC2)nc2ccccc12` [compound 748]: the class is on record as 3 (Class 3 The value of percent of control at 10^−7 M was more than 60% or the value of IC50 was more than 200 nM.).

Take `CN(C)c1ccnc(N[C@H]2CC[C@@H](CNCc3ccc4c(c3)OCO4)CC2)n1` [compound 1303]: the class is on record as 3 (Class 3 The value of percent of control at 10^−7 M was more than 60% or the value of IC50 was more than 200 nM.).

In the case of `Cc1ccc(NC(=S)N[C@H]2CC[C@@H](Nc3cc(N(C)C)c4ccccc4n3)CC2)c(C)c1` [compound 2276], the class is 3 (Class 3 The value of percent of control at 10^−7 M was more than 60% or the value of IC50 was more than 200 nM.).

On to `CN(C)c1ccnc(N[C@H]2CC[C@@H](NCc3c[nH]c4ccccc34)CC2)n1` [compound 1207], for which the class is on record as 3 (Class 3 The value of percent of control at 10^−7 M was more than 60% or the value of IC50 was more than 200 nM.). On to `CN(C)c1nc(N[C@H]2CC[C@@H](NCc3cccc4ccccc34)CC2)nc2c1CCCC2` [compound 1361], for which the class is reported as 3 (Class 3 The value of percent of control at 10^−7 M was more than 60% or the value of IC50 was more than 200 nM.). In the case of `CN(C)c1cc(N[C@H]2CC[C@@H](CNCc3cc(Cl)cc(Cl)c3)CC2)nc2ccccc12` [compound 1187], the class is 3 (Class 3 The value of percent of control at 10^−7 M was more than 60% or the value of IC50 was more than 200 nM.). Same read-out and setting: to `CN(C)c1ccnc(N[C@H]2CC[C@@H](NC(=O)c3ccc(F)c(Cl)c3)CC2)n1` [compound 291, 3-chloro-N-(cis-4-{[4-(dimethylamino)pyrimidin-2-yl]amino}cyclohexyl)-4-fluorobenzamide] belongs 1 (Class 1: The value of percent of control at 10^−7 M was less than 40% or the value of IC50 was less than 50 nM.). Still for that read-out and setting: under `CN(C)c1nc(N[C@H]2CC[C@@H](CNC(=O)Nc3ccc(F)c(Cl)c3)CC2)nc2c1CCCC2` [compound 2496] stands 3 (Class 3 The value of percent of control at 10^−7 M was more than 60% or the value of IC50 was more than 200 nM.).

The assay is the same for the next values; noted with them: class by percent of control at 10^−7 M or IC50.
As for `Cc1cc(N(C)C)nc(N[C@H]2CC[C@@H](CNC(=O)c3ccc(F)c(Cl)c3)CC2)n1` [compound 2764], the class is 1 (Class 1: The value of percent of control at 10^−7 M was less than 40% or the value of IC50 was less than 50 nM.). On to `Cc1cc(N(C)C)nc(N[C@H]2CC[C@@H](C(=O)NCc3ccccc3OC(F)(F)F)CC2)n1` [compound 2823, cis-4-{[4-(dimethylamino)-6-methylpyrimidin-2-yl]amino}-N-[2-(trifluoromethoxy)benzyl]cyclohexanecarboxamide], for which the class is 1 (Class 1: The value of percent of control at 10^−7 M was less than 40% or the value of IC50 was less than 50 nM.).

Source of the values: US20050197350A1, “Novel quinoline, tetrahydroquinazoline, and pyrimidine derivatives and methods of treatment related to the use thereof” (TAISHO PHARMACEUTICAL CO., LTD., priority 2003, published 2005).
